# In patent US5061794A, “Cephalosporin derivatives, and antibacterial agents” (priority 1986, dated 1991):
# Like-named read-outs stand apart in the source and are kept apart here.
# Tests used:
# [1] = test system: S. marcescens IAM 1184; experiment: in vitro antibacterial activity, agar plate dilution method (MIC); type: cell-based; details: Serratia marcescens, IAM1184, 16 h, S. marcescens IAM 1184; 10^6 CFU/ml; read-out: Minimum Inhibitory Concentration (MIC)
# How it was run: (§1)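 MIC values (μg/ml) come from Mueller Hinton agar dilution plates inoculated with overnight-grown bacteria at 10^6 CFU/ml and kept at 37° C. for 16 hours.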
# [2] = test system: P. vulgaris No. 33; experiment: as above; type: cell-based; details: Proteus vulgaris, NO.33, 16 h, read-out: Minimum Inhibitory Concentration (MIC), *P. vulgaris No. 33, lactamase-producing strain; 10^6 CFU/ml
# How it was run: as §1
# [3] = test system: K. pneumoniae PCI-602; experiment: as above; type: cell-based; details: Klebsiella pneumoniae, PCI602, 16 h, read-out: Minimum Inhibitory Concentration (MIC), K. pneumoniae PCI-602; 10^6 CFU/ml
# How it was run: as §1
# [4] = test system: K. pneumoniae No. 42; experiment: as above; type: cell-based; details: Klebsiella pneumoniae, 10^6 CFU/ml
# How it was run: as §1
# [5] = test system: K. oxytoca GN10650; experiment: as above; type: cell-based; details: Klebsiella oxytoca, 10^6 CFU/ml
# How it was run: as §1
# [6] = test system: E. cloacae Nek 39; experiment: as above; type: cell-based; details: Enterobacter cloacae, NEK39, 16 h, read-out: Minimum Inhibitory Concentration (MIC), *E. cloacae Nek 39, lactamase-producing strain; 10^6 CFU/ml
# How it was run: as §1
# [7] = test system: E. cloacae 963; experiment: as above; type: cell-based; details: 10^6 CFU/ml
# How it was run: as §1
# [8] = test system: P. vulgaris HX-19; experiment: as above; type: cell-based; details: Proteus vulgaris, HX19, 16 h, P. vulgaris HX-19; 10^6 CFU/ml; read-out: Minimum Inhibitory Concentration (MIC)
# How it was run: as §1
# [9] = test system: E. coli GN5482; experiment: as above; type: cell-based; details: Escherichia coli, GN5482, 16 h
# How it was run: as §1
# [10] = test system: M. morganii GN5407; experiment: as above; type: cell-based; details: Morganella morganii, GN5407, 16 h, read-out: Minimum Inhibitory Concentration (MIC), *M. morganii GN5407, lactamase-producing strain; 10^6 CFU/ml
# How it was run: as §1
# [11] = test system: E. coli NIHJ JC2; experiment: as above; type: cell-based; details: Escherichia coli, NIHJJC2, 16 h, read-out: Minimum Inhibitory Concentration (MIC), E. coli NIHJ JC2, 10^6 CFU/ml, 37° C.
# How it was run: as §1
# [12] = test system: S. marcescens No. 16-2; experiment: as above; type: cell-based; details: Serratia marcescens, NO.162, 16 h
# How it was run: as §1
# [13] = test system: S. aureus 209P NIHJ-JC1; experiment: as above; type: cell-based; details: Staphylococcus aureus, 16 h
# How it was run: as §1
# [14] = test system: E. coli CSH2 (RK1); experiment: microbe, parasite or virus in culture; type: cell-based; details: Escherichia coli, 16 h, read-out: Minimum Inhibitory Concentration (MIC), *E. coli CSH2 (RK1), lactamase-producing strain; 10^6 CFU/ml
# How it was run: as §1
# [15] = test system: E. coli CSH(RE45); experiment: microbe, parasite or virus in culture; type: cell-based; details: Escherichia coli, 16 h, read-out: Minimum Inhibitory Concentration (MIC), *E. coli CSH(RE45), lactamase-producing strain; 10^6 CFU/ml
# How it was run: as §1
# [16] = test system: Ps. aeruginosa AKR17; experiment: in vitro antibacterial activity, agar plate dilution method (MIC); type: cell-based, Pseudomonas aeruginosa; details: Pseudomonas aeruginosa
# How it was run: as §1
# [17] = test system: Ps. aeruginosa AK 109; experiment: as above; type: cell-based, Pseudomonas aeruginosa; details: Pseudomonas aeruginosa, AK109, 16 h
# How it was run: as §1
# [18] = test system: Ps. aeruginosa IF03445; experiment: as above; type: cell-based, Pseudomonas aeruginosa; details: Pseudomonas aeruginosa, IF03445, 16 h, read-out: Minimum Inhibitory Concentration (MIC), Ps. aeruginosa IF03445; 10^6 CFU/ml
# How it was run: as §1
# [19] = test system: A. calcoaceticus No. 4; experiment: as above; type: cell-based, Acinetobacter calcoaceticus; details: Acinetobacter calcoaceticus, NO.4, 16 h, 10^6 CFU/ml
# How it was run: as §1
# [20] = test system: Ps. cepacia 23; experiment: as above; type: cell-based, Pseudomonas cepacia; details: Burkholderia cepacia, 16 h; Ps. cepacia 23; 10^6 CFU/ml; read-out: Minimum Inhibitory Concentration (MIC)
# How it was run: as §1
# [21] = NO.42, 16 h, read-out: Minimum Inhibitory Concentration (MIC), *K. pneumoniae No. 42, lactamase-producing strain
# [22] = GN10650, 16 h, read-out: Minimum Inhibitory Concentration (MIC), *K. oxytoca GN10650, lactamase-producing strain
# [23] = read-out: Minimum Inhibitory Concentration (MIC)
# [24] = 16 h, Ps. aeruginosa AKR17, 10^6 CFU/ml, read-out: Minimum Inhibitory Concentration (MIC)
# [25] = A. calcoaceticus No. 4, read-out: Minimum Inhibitory Concentration (MIC)
# [26] = Enterobacter cloacae, 963, 16 h, read-out: Minimum Inhibitory Concentration (MIC), E. cloacae 963
# [27] = read-out: Minimum Inhibitory Concentration (MIC), S. aureus 209P NIHJ-JC1, 10^6 CFU/ml, 37° C., 16 hours
# [28] = Ps. aeruginosa AK 109, 10^6 CFU/ml, read-out: Minimum Inhibitory Concentration (MIC)
# [29] = read-out: Minimum Inhibitory Concentration (MIC), A. calcoaceticus No. 4
# [30] = read-out: Minimum Inhibitory Concentration (MIC), *E. coli GN5482, lactamase-producing strain, 10^6 CFU/ml
# [31] = read-out: Minimum Inhibitory Concentration (MIC), *S. marcescens No. 16-2, lactamase-producing strain, 10^6 CFU/ml
Structure (SMILES),MIC [1] [µg/mL],MIC [2] [µg/mL],MIC [3] [µg/mL],"MIC [4, 21] [µg/mL]","MIC [5, 22] [µg/mL]",MIC [6] [µg/mL],MIC [8] [µg/mL],"MIC [9, 23] [µg/mL]",MIC [10] [µg/mL],MIC [11] [µg/mL],MIC [14] [µg/mL],MIC [15] [µg/mL],"MIC [16, 24] [µg/mL]",MIC [18] [µg/mL],"MIC [19, 25] [µg/mL]",MIC [20] [µg/mL],"MIC [7, 26] [µg/mL]","MIC [13, 27] [µg/mL]","MIC [9, 30] [µg/mL]","MIC [12, 31] [µg/mL]",further results
"Nc1nc(/C(=N/OCc2ccccc2)C(=O)N[C@@H]2C(=O)N3C(C(=O)O)=C(CSc4nnc(-c5ccc(O)c(O)c5)o4)CS[C@H]23)cs1 [Ex. 13, sodium 7β-[2-(2-aminothiazol-4-yl)-2-benzyloxyiminoacetamido]-3-[5-(3,4-dihydroxyphenvl)-1,3,4-oxadiazol-2-yl]thiomethyl-3-cephem-4-carboxylate]",0.0125,0.025,< 0.006,0.05,0.39,0.1,< 0.006,0.39,0.025,0.1,< 0.006,1.56,50,0.39,0.2,0.025,,,,,"MIC ([7]; Enterobacter cloacae, 16 h, E. cloacae 963, read-out: Minimum Inhibitory Concentration (MIC)): 0.0125 µg/mL; MIC [12, 23]: 3.12 µg/mL; MIC [13, 23]: 0.39 µg/mL; MIC [17, 23]: 0.39 µg/mL"
"Nc1nc(/C(=N/OCc2ccc(O)c(O)c2)C(=O)N[C@@H]2C(=O)N3C(C(=O)O)=C(CSc4nnc(-c5ccc(O)c(O)c5)o4)CS[C@H]23)cs1 [Ex. 14, sodium 7β-[2-(2-aminothiazol-4-yl)-2-(3,4-dihydroxybenzyloxyimino)acetamido]-3-[5-(3,4-dihydroxyphenyl)-1,3,4-oxadiazol-2-yl]thiomethyl-3-cephem-4-carboxylate]",0.1,0.2,< 0.006,0.39,6.25,1.56,0.05,3.12,0.1,0.39,0.05,3.12,> 100,12.5,,0.1,0.39,1.56,,,"MIC ([12]; *S. marcescens No. 16-2, lactamase-producing strain, 10^6 CFU/ml, read-out: Minimum Inhibitory Concentration (MIC)): 25 µg/mL; MIC [17, 28]: 100 µg/mL; MIC [19, 29]: 0.39 µg/mL"
"Nc1nc(/C(=N/OC(C(=O)O)c2ccccc2)C(=O)N[C@@H]2C(=O)N3C(C(=O)O)=C(CSc4nnc(-c5ccc(O)c(O)c5)o4)CS[C@H]23)cs1 (stereo partly drawn) [Ex. 15, disodium 7δ-[2-(2-aminothiazol-4-yl)-2-(α-carboxylatebenzyloxyimino)acetamido]-3-[5-(3,4-dihydroxyphenyl)-1,3,4-oxadiazol-2-yl]thiomethyl-3-cephem-4-carboxylate]",0.025,0.0125,< 0.006,0.05,0.0125,0.05,< 0.006,,0.05,0.1,< 0.006,3.12,,0.78,0.05,< 0.006,0.025,,1.56,0.78,"MIC [13, 23]: 12.5 µg/mL; MIC ([16]; AKR17, 16 h, read-out: Minimum Inhibitory Concentration (MIC), Ps. aeruginosa AKR17, 10^6 CFU/ml): 0.78 µg/mL; MIC [17, 23]: 0.39 µg/mL"
"Nc1nc(/C(=N/Oc2ccccc2)C(=O)N[C@@H]2C(=O)N3C(C(=O)O)=C(CSc4nnc(-c5ccc(O)c(O)c5)o4)CS[C@H]23)cs1 [Ex. 22, sodium 7β-[2-(2-aminothiazol-4-yl)2phenoxyiminoacetamido]-3-[5-(3,4-dihydroxyphenyl)-1,3,4-oxadiazol-2-yl]thiomethyl-3-cephem-4-carboxylate]",0.05,0.025,< 0.006,0.0125,,0.05,< 0.006,,0.0125,0.39,0.0125,< 0.006,> 100,1.56,0.2,0.025,0.025,0.78,0.78,0.78,"MIC ([5]; 16 h, *K. oxytoca GN10650, lactamase-producing strain, read-out: Minimum Inhibitory Concentration (MIC)): 100 µg/mL; MIC ([17]; read-out: Minimum Inhibitory Concentration (MIC), Ps. aeruginosa AK 109, 10^6 CFU/ml): 1.56 µg/mL"
Nc1nc(/C(=N/OCc2ccccc2CC(=O)O)C(=O)N[C@@H]2C(=O)N3C(C(=O)O)=C(CSc4nnc(-c5ccc(O)c(O)c5)o4)CS[C@H]23)cs1 [Ex. 23],0.025,0.0125,< 0.006,,0.1,0.1,< 0.006,,0.025,0.2,< 0.006,< 0.006,,0.39,,< 0.006,0.025,6.25,0.78,1.56,"MIC ([4]; 16 h, *K. pneumoniae No. 42, lactamase-producing strain, read-out: Minimum Inhibitory Concentration (MIC)): < 0.006 µg/mL; MIC ([16]; AKR17, 16 h, read-out: Minimum Inhibitory Concentration (MIC)): 12.5 µg/mL; MIC [17, 28]: 0.1 µg/mL; MIC [19, 29]: 0.1 µg/mL"
